# Counter-ions that a name gives are not always drawn. Like-named read-outs stand apart in the source and are kept apart here.
# Experiments:
# [1] = system: K. pneumoniae (ATCC700603); assay: MIC against K. pneumoniae; details: Klebsiella pneumoniae, ATCC700603, read-out: K. pneumoniae MIC (ATCC700603)
# P. aeruginosa PBP1a = P. aeruginosa PBP1a (Pseudomonas aeruginosa, UniProt Q07806); type: biochemical; details: P. aeruginosa PBP1a 60 nM, BOCILLIN FL 30 nM, pH 7.0
# A. baumannii (ARC3495) = assay: MIC against A. baumannii; details: Acinetobacter baumannii, read-out: A. baumannii MIC (ARC3495) (mg/L)
# P. aeruginosa PBP3 = P. aeruginosa PBP3 (Pseudomonas aeruginosa, UniProt G3XD46); type: biochemical; details: P. aeruginosa PBP3 60 nM, BOCILLIN FL 30 nM, pH 7.0
# Sequence of P. aeruginosa PBP3 (G3XD46 whole entry): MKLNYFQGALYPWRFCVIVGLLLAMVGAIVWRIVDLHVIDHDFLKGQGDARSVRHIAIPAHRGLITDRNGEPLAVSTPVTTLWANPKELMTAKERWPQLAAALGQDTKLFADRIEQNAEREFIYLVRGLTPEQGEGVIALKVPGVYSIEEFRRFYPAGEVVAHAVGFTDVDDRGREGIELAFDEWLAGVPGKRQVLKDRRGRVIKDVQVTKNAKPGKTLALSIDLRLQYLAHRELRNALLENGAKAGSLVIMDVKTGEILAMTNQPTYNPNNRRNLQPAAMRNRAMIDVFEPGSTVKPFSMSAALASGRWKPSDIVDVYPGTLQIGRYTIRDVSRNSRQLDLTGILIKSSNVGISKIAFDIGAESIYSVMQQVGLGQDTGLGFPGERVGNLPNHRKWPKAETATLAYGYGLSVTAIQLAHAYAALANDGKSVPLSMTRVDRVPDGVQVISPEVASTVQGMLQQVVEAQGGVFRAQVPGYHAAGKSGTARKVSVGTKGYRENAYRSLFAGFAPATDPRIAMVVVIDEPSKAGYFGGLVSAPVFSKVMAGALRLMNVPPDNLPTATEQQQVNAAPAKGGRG
# E. coli (ATCC25922) = assay: MIC against E. coli; details: Escherichia coli, ATCC25922, read-out: E. coli MIC (ATCC25922) (mg/L)
# P. aeruginosa WT (PAO1) = assay: MIC, CLSI broth microdilution, P. aeruginosa; type: cell-based; details: Pseudomonas aeruginosa
# [2] = PAO1, CLSI broth microdilution, read-out: P. aeruginosa WT (PAO1) MIC
# Sequence of P. aeruginosa PBP1a (Q07806 whole entry): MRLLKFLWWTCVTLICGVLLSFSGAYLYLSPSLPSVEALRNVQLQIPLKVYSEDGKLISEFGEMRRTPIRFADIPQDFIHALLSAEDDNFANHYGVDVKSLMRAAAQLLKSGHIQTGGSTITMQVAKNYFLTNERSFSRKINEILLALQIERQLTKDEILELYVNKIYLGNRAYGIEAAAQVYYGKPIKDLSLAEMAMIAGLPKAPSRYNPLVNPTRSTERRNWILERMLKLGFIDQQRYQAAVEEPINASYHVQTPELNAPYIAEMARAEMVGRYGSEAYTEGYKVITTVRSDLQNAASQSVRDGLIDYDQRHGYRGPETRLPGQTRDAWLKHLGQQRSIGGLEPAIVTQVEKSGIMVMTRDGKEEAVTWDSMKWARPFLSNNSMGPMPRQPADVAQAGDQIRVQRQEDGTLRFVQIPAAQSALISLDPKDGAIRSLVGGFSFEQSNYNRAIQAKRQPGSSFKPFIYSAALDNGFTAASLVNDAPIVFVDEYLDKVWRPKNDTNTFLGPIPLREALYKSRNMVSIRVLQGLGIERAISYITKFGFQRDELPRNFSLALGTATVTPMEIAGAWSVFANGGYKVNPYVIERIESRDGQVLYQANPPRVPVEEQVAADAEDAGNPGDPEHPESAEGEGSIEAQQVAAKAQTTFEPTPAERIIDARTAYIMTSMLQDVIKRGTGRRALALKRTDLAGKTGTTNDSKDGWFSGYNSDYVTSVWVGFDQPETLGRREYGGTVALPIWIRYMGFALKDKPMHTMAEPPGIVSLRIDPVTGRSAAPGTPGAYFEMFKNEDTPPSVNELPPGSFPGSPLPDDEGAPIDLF
MIC [1] [mg/L],MIC (A. baumannii (ARC3495)) [mg/L],MIC (E. coli (ATCC25922)) [mg/L],MIC (P. aeruginosa WT (PAO1); [2]) [mg/L],Structure (SMILES),"PBP1a acylation rate, k(on) (M^−1 · s^−1) (P. aeruginosa PBP1a)","PBP3 acylation rate, k(on) (M^−1 · s^−1) (P. aeruginosa PBP3)","MIC (P. aeruginosa WT (PAO1); PAO1, read-out: P. aeruginosa WT (PAO1) MIC (mg/L)) [mg/L]"
> 16,> 16,< 8,> 16,"CN(C(N)=O)/C(=N\OC(=O)NCCNC(N)=O)[C@@H]1c2c(cnn2C)[C@@H]2CN1C(=O)N2OS(=O)(=O)O [Example 43, (4R,8S)-8-((Z)—N-carbamoyl-N-methyl-N′-(((2-ureidoethyl)carbamoyl)oxy)carbamimidoyl)-1-methyl-6-oxo-4,8-dihydro-1H-4,7-methanopyrazolo[3,4-e][1,3]diazepin-5(6H)-yl hydrogen sulfate]","** (** represents a k(on) of 100 to 10,000 M^−1 · s^−1)","*** (*** represents a k(on) > 10,000 M^−1 · s^−1)",
> 16,> 16,< 8,8 to 16,CN/C(=N\OCC(=O)NCCCC[C@H](N)C(=O)O)[C@@H]1c2c(cnn2C)[C@@H]2CN1C(=O)N2OS(=O)(=O)O (racemic) [Example 60],* (* represents a k(on) < 100 M^−1 · s^−1),"*** (*** represents a k(on) > 10,000 M^−1 · s^−1)",
> 16,> 16,8 to 16,8 to 16,CN/C(=N\OC(=O)NCCC(N)=O)[C@@H]1c2c(cnn2C)[C@@H]2CN1C(=O)N2OS(=O)(=O)O (racemic) [Example 16],"** (** represents a k(on) of 100 to 10,000 M^−1 · s^−1)","*** (*** represents a k(on) > 10,000 M^−1 · s^−1)",
8 to 16,> 16,8 to 16,8 to 16,"CN/C(=N\OCC(=O)NOS(=O)(=O)O)[C@@H]1c2c(cnn2C)[C@@H]2CN1C(=O)N2OS(=O)(=O)O [Example 73, pyridium ((2-((((Z)-((4R,8S)-1-methyl-6-oxo-5-(sulfooxy)-4,5,6,8-tetrahydro-1H-4,7-methanopyrazolo[3,4-e][1,3]diazepin-8-yl)(methylamino)methylene)amino)oxy)acetamido)oxy)sulfonic acid]","** (** represents a k(on) of 100 to 10,000 M^−1 · s^−1)","*** (*** represents a k(on) > 10,000 M^−1 · s^−1)",
> 16,8 to 16,8 to 16,8 to 16,"CN/C(=N\OC(=O)NCCNC(N)=O)[C@@H]1c2c(cnn2C)[C@@H]2CN1C(=O)N2OS(=O)(=O)O [Example 42, (4R,8S)-1-methyl-8-((Z)—N-methyl-N′-(((2-ureidoethyl)carbamoyl)oxy)carbamimidoyl)-6-oxo-4,8-dihydro-1H-4,7-methanopyrazolo[3,4-e][1,3]diazepin-5(6H)-yl hydrogen sulfate]","** (** represents a k(on) of 100 to 10,000 M^−1 · s^−1)","*** (*** represents a k(on) > 10,000 M^−1 · s^−1)",
> 16,8 to 16,< 8,< 8,CN/C(=N\OC(=O)NCC1CCNCC1)[C@@H]1c2c(cnn2C)[C@@H]2CN1C(=O)N2OS(=O)(=O)O (racemic) [Example 28],"** (** represents a k(on) of 100 to 10,000 M^−1 · s^−1)","*** (*** represents a k(on) > 10,000 M^−1 · s^−1)",
8 to 16,> 16,8 to 16,8 to 16,CN/C(=N\OC(=O)NCC(N)=O)[C@@H]1c2c(cnn2C)[C@@H]2CN1C(=O)N2OS(=O)(=O)O (racemic) [Example 23],"** (** represents a k(on) of 100 to 10,000 M^−1 · s^−1)","*** (*** represents a k(on) > 10,000 M^−1 · s^−1)",
> 16,> 16,8 to 16,> 16,"CN/C(=N\OC(=O)NCCNC(C)=O)[C@@H]1c2c(cnn2C)[C@@H]2CN1C(=O)N2OS(=O)(=O)O [Example 44, (4R,8S)-8-((Z)—N′-(((2-acetamidoethyl)carbamoyl)oxy)-N-methylcarbamimidoyl)-1-methyl-6-oxo-4,8-dihydro-1H-4,7-methanopyrazolo[3,4-e][1,3]diazepin-5(6H)-yl hydrogen sulfate]","** (** represents a k(on) of 100 to 10,000 M^−1 · s^−1)","*** (*** represents a k(on) > 10,000 M^−1 · s^−1)",
8 to 16,> 16,8 to 16,8 to 16,"CN/C(=N\OS(N)(=O)=O)[C@@H]1c2c(cnn2C)[C@@H]2CN1C(=O)N2OS(=O)(=O)O [Example 46, (4R,8S)-1-methyl-8-((Z)—N-methyl-N′-(sulfamoyloxy)carbamimidoyl)-6-oxo-4,8-dihydro-1H-4,7-methanopyrazolo[3,4-e][1,3]diazepin-5(6H)-yl hydrogen sulfate]","** (** represents a k(on) of 100 to 10,000 M^−1 · s^−1)","*** (*** represents a k(on) > 10,000 M^−1 · s^−1)",
> 16,> 16,< 8,8 to 16,"CN/C(=N\OC(=O)NCc1cn(C)[n+](C)c1)[C@@H]1c2c(cnn2C)[C@@H]2CN1C(=O)N2OS(=O)(=O)O [Example 54, 1,2-dimethyl-4-((Z)-3-((4R,8S)-1-methyl-6-oxo-5-(sulfooxy)-4,5,6,8-tetrahydro-1H-4,7-methanopyrazolo[3,4-e][1,3]diazepin-8-yl)-6-oxo-5-oxa-2,4,7-triazaoct-3-en-8-yl)-1H-pyrazol-2-ium]",* (* represents a k(on) < 100 M^−1 · s^−1),"*** (*** represents a k(on) > 10,000 M^−1 · s^−1)",
8 to 16,> 16,8 to 16,< 8,"CN/C(=N\OCC(=O)O)[C@@H]1c2c(cnn2C)[C@@H]2CN1C(=O)N2OS(=O)(=O)O [Example 62, 2-((((Z)-((4R,8S)-1-methyl-6-oxo-5-(sulfooxy)-4,5,6,8-tetrahydro-1H-4,7-methanopyrazolo[3,4-e][1,3]diazepin-8-yl)(methylamino)methylene)amino)oxy)acetic acid]","** (** represents a k(on) of 100 to 10,000 M^−1 · s^−1)","*** (*** represents a k(on) > 10,000 M^−1 · s^−1)",
> 16,8 to 16,8 to 16,< 8,CN/C(=N\OC(=O)NC1CCNCC1)[C@@H]1c2c(cnn2C)[C@@H]2CN1C(=O)N2OS(=O)(=O)O (racemic) [Example 29],"** (** represents a k(on) of 100 to 10,000 M^−1 · s^−1)","*** (*** represents a k(on) > 10,000 M^−1 · s^−1)",
> 16,> 16,< 8,> 16,CN/C(=N\OC(=O)NCCCC[C@H](N)C(=O)OC(C)(C)C)[C@@H]1c2c(cnn2C)[C@@H]2CN1C(=O)N2OS(=O)(=O)O (racemic) [Example 32],"** (** represents a k(on) of 100 to 10,000 M^−1 · s^−1)","*** (*** represents a k(on) > 10,000 M^−1 · s^−1)",

Structure (SMILES),MIC [1] [mg/L],MIC (A. baumannii (ARC3495)) [mg/L],MIC (E. coli (ATCC25922)) [mg/L],MIC (P. aeruginosa WT (PAO1); [2]) [mg/L],"PBP1a acylation rate, k(on) (M^−1 · s^−1) (P. aeruginosa PBP1a)","PBP3 acylation rate, k(on) (M^−1 · s^−1) (P. aeruginosa PBP3)","MIC (P. aeruginosa WT (PAO1); PAO1, read-out: P. aeruginosa WT (PAO1) MIC (mg/L)) [mg/L]"
CNC(=O)O/N=C(\NC)[C@@H]1c2c(cnn2C)[C@@H]2CN1C(=O)N2OS(=O)(=O)O (racemic) [Example 20],> 16,8 to 16,8 to 16,,"** (** represents a k(on) of 100 to 10,000 M^−1 · s^−1)","*** (*** represents a k(on) > 10,000 M^−1 · s^−1)",8 to 16

# — patent US11046694B2, “Compounds and methods for treating bacterial infections” (Entasis Therapeutics, Inc., priority 2018, dated 2021)
